From patent publication US20240400555A1 (Initial Therapeutics, Inc., priority 2023, published 2024) come the findings set out here.

In general, pIC50 refers to the IC50 on a negative log10 scale, so that one unit is a factor of ten.

SMILES strings stand for the structures. pIC50: −log10 of the molar value. A value given as a limit tells only on which side of the number the result lay.

This assay concerns MV-4-11 cells. Put plainly: Cell Viability Assay in MV-4-11 Cells. Type of assay: cell-based. Particulars: Homo sapiens, MV4-11, 72 h, MV-4-11 cells, 72 h, Cell-Titer Glo; read-out: IC50. The method in brief:
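MV-4-11 cells at 7,000/well in IMDM with 10% FBS, exposed to compound for 72 h. Viability by CellTiter-Glo luminescence, normalized to DMSO as 100%, fitted with a four-parameter curve.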
Regarding `O=C(c1ccc(-n2nnc3cccnc32)cc1F)N(c1nccc2sc(-c3ccc(CO)s3)cc12)[C@@H]1CCCNC1` [Example 426, 2-fluoro-N-[2-[5-(hydroxymethyl)-2-thienyl]thieno [3,2-c]pyridin-4-yl]-N-[(3R)-3-piperidyl]-4-(triazolo [4,5-b]pyridin-3-yl) benzamide], the pIC50 is 6.80. The value for `CC(C)NS(=O)(=O)c1ccc(-c2cc3c(N(C(=O)c4ccc(-c5cn(C)nn5)cc4F)[C@@H]4CCCNC4)nccc3s2)cc1` [Example 537, 2-fluoro-N-[2-[4-(isopropylsulfamoyl)phenyl]thieno[3,2-c]pyridin-4-yl]-4-(1-methyltriazol-4-yl)-N-[(3R)-3-piperidyl]benzamide] was 5.80; that for `CCCN(C)c1ccnc(Nc2ccc(C(=O)N(c3nccc4cccc(C)c34)[C@@H]3CCCNC3)c(F)c2)n1` [Example 745, (R)-2-fluoro-4-((4-(methyl(propyl)amino)pyrimidin-2-yl)amino)-N-(8-methylisoquinolin-1-yl)-N-(piperidin-3-yl)benzamide] was 6.80; that for `Cn1cc(-c2ccc(C(=O)N(c3nccc4cc(-c5ccc(F)cc5)ccc34)[C@@H]3CCCNC3)c(F)c2)nn1` [Example 580, (R)-2-fluoro-N-(6-(4-fluorophenyl)isoquinolin-1-yl)-4-(1-methyl-1H-1,2,3-triazol-4-yl)-N-(piperidin-3-yl)benzamide] was 6.37.

`CN(C)C(=O)/C=C/c1cc2c(N(C(=O)c3ccc(-n4nnc5cccnc54)cc3F)[C@@H]3CCCNC3)nccc2s1` [Example 526, N-[2-[(E)-3-(dimethylamino)-3-oxo-prop-1-enyl]thieno[3,2-c]pyridin-4-yl]-2-fluoro-N-[(3R)-3-piperidyl]-4-(triazolo[4,5-b]pyridin-3-yl)benzamide]: the pIC50 was 6.06. The same measure for `Cc1cccc2ccnc(N(C(=O)c3ccc(-c4cn(CCC#N)nn4)cc3F)[C@@H]3CCCNC3)c12` [Example 888, 4-[1-(2-cyanoethyl)triazol-4-yl]-2-fluoro-N-(8-methyl-1-isoquinolyl)-N-[(3R)-3-piperidyl]benzamide]: 7.59. The same measure for `Cc1cccc2ccnc(N(C(=O)c3ccc(Nc4nccc(N5CCC[C@@H](O)C5)n4)cc3F)[C@@H]3CCCNC3)c12` [Example 623, 2-fluoro-4-((4-((R)-3-hydroxypiperidin-1-yl)pyrimidin-2-yl)amino)-N-(8-methylisoquinolin-1-yl)-N—((R)-piperidin-3-yl)benzamide]: 7.52; for `COCCc1nnc(-c2ccc(C(=O)N(c3nccc4scc(C)c34)[C@@H]3CCCNC3)cc2)s1` [Example 633, (R)-4-(5-(2-methoxyethyl)-1,3,4-thiadiazol-2-yl)-N-(3-methylthieno[3,2-c]pyridin-4-yl)-N-(piperidin-3-yl)benzamide]: 7.51; for `CCc1nnc(-c2ccc(C(=O)N(c3nccc4cccc(C)c34)[C@@H]3CCCNC3)cc2)s1` [Example 791, (R)-4-(5-ethyl-1,3,4-thiadiazol-2-yl)-N-(8-methylisoquinolin-1-yl)-N-(piperidin-3-yl) benzamide]: 6.85. The same measure for `Nc1ccc(-c2cc3c(N(C(=O)c4ccc(-n5nnc6cccnc65)cc4F)[C@@H]4CCCNC4)nccc3s2)cc1` [Example 412, N-[2-(4-aminophenyl)thieno[3,2-c]pyridin-4-yl]-2-fluoro-N-[(3R)-3-piperidyl]-4-(triazolo[4,5-b]pyridin-3-yl)benzamide]: 7.20; for `Cc1cccc2ccnc(N(C(=O)c3ccc(-c4nnc(CCC#N)s4)cc3)[C@@H]3CCCNC3)c12` [Example 880, 4-[5-(2-cyanoethyl)-1,3,4-thiadiazol-2-yl]-N-(8-methyl-1-isoquinolyl)-N-[(3R)-3-piperidyl]benzamide]: 6.74; for `Cc1nnc(-c2ccc(C(=O)N(c3nccc4cc(Cl)cc(C)c34)[C@@H]3CCCNC3)c(F)c2)o1` [Example 765, (R)—N-(6-chloro-8-methylisoquinolin-1-yl)-2-fluoro-4-(5-methyl-1,3,4-oxadiazol-2-yl)-N-(piperidin-3-yl)benzamide]: 7.07. For the compound `Cc1cccc2ccnc(N(C(=O)c3ccc(Nc4nccc(N5CCOCC5C#N)n4)cc3F)[C@@H]3CCCNC3)c12` (stereo partly drawn) [Example 955, 4-((4-(3-cyanomorpholino)pyrimidin-2-yl)amino)-2-fluoro-N-(8-methylisoquinolin-1-yl)-N—((R)-piperidin-3-yl)benzamide], the pIC50 is 7.59.

As to `COc1ccc2c(N(C(=O)c3ccc(-c4cn(C)nn4)cc3)[C@@H]3CCCNC3)nccc2c1Cl` [Example 869, N-(5-chloro-6-methoxy-1-isoquinolyl)-4-(1-methyltriazol-4-yl)-N-[(3R)-3-piperidyl]benzamide], the pIC50 is 5.85. In the case of `CCc1nnc(-c2ccc(C(=O)N(c3nccc4scc(C)c34)[C@@H]3CCCNC3)nc2)s1` [Example 670, (R)-5-(5-ethyl-1,3,4-thiadiazol-2-yl)-N-(3-methylthieno[3,2-c]pyridin-4-yl)-N-(piperidin-3-yl)picolinamide], the pIC50 is 6.77. The same measure for `CCc1cc(-n2nnc3cccnc32)ccc1C(=O)N(c1nccc2cccc(C)c12)[C@@H]1CCCNC1` [Example 307, (R)-4-(3H-[1,2,3]triazolo[4,5-b]pyridin-3-yl)-2-ethyl-N-(8-methylisoquinolin-1-yl)-N-(piperidin-3-yl)benzamide]: 7.00; for `Cc1cccc2ccnc(N(C(=O)c3cccc(C#CCCN4C(=O)c5ccccc5C4=O)c3)[C@@H]3CCCNC3)c12` [Example 588, (R)-3-(4-(1,3-dioxoisoindolin-2-yl)but-1-yn-1-yl)-N-(8-methylisoquinolin-1-yl)-N-(piperidin-3-yl)benzamide]: 6.10. The same measure for `CCn1cc(-c2ccc(C(=O)N(c3nccc4scc(C)c34)[C@@H]3CCCNC3)cn2)nn1` [Example 885, 6-(1-ethyltriazol-4-yl)-N-(3-methylthieno[3,2-c]pyridin-4-yl)-N-[(3R)-3-piperidyl]pyridine-3-carboxamide]: 6.96; for `NC(=O)Cc1cccc(-c2cc3c(N(C(=O)c4ccc(-n5nnc6cccnc65)cc4F)[C@@H]4CCCNC4)nccc3s2)c1` [Example 447, N-[2-[3-(2-amino-2-oxo-ethyl)phenyl]thieno[3,2-c]pyridin-4-yl]-2-fluoro-N-[(3R)-3-piperidyl]-4-(triazolo[4,5-b]pyridin-3-yl)benzamide]: 6.96; for `Cc1nnc(-c2ccc(C(=O)N(c3nccc4cc(F)cc(C)c34)[C@@H]3CCCNC3)cn2)s1` [Example 647, N-(6-fluoro-8-methyl-1-isoquinolyl)-6-(5-methyl-1,3,4-thiadiazol-2-yl)-N-[(3R)-3-piperidyl] pyridine-3-carboxamide]: 6.89. The same measure for `Cc1cccc2ccnc(N(C(=O)c3cccc(C#CCCC(=O)NC(C)CO)c3)[C@@H]3CCCNC3)c12` (stereo partly drawn) [Example 520, 3-(5-((1-hydroxypropan-2-yl)amino)-5-oxopent-1-yn-1-yl)-N-(8-methylisoquinolin-1-yl)-N—((R)-piperidin-3-yl)benzamide]: 5.77.

In the case of `CNS(=O)(=O)c1cccc(-c2cc3c(N(C(=O)c4ccc(-c5cn(C)nn5)cc4F)[C@@H]4CCCNC4)nccc3s2)c1` [Example 535, 2-fluoro-N-[2-[3-(methylsulfamoyl)phenyl]thieno[3,2-c]pyridin-4-yl]-4-(1-methyltriazol-4-yl)-N-[(3R)-3-piperidyl]benzamide], the pIC50 is 5.92. The value for `Cc1cc(F)cc2ccnc(N(C(=O)c3ccc(Nc4ncccn4)cc3F)[C@@H]3CCCNC3)c12` [Example 564, (R)-2-fluoro-N-(6-fluoro-8-methylisoquinolin-1-yl)-N-(piperidin-3-yl)-4-(pyrimidin-2-ylamino)benzamide] was 7.85; that for `O=C(c1ccc(-n2nnc3cccnc32)cc1F)N(c1nccc2cc(/C=C/CO)ccc12)[C@@H]1CCCNC1` [Example 331, (R)-4-(3H-[1,2,3]triazolo[4,5-b]pyridin-3-yl)-2-fluoro-N-(6-(3-hydroxyprop-1-en-1-yl)isoquinolin-1-yl)-N-(piperidin-3-yl)benzamide] was 7.09. The value for `Cn1cc(-c2ccc(C(=O)N(c3nccc4c(F)cccc34)[C@@H]3CCCNC3)c(F)c2)nn1` [Example 759, (R)-2-fluoro-N-(5-fluoroisoquinolin-1-yl)-4-(1-methyl-1H-1,2,3-triazol-4-yl)-N-(piperidin-3-yl)benzamide] was 6.28. The same measure for `Cc1cccc2ccnc(N(C(=O)c3ccc(C#N)cc3-c3ccn[nH]3)[C@@H]3CCCNC3)c12` [Example 333, 4-cyano-N-(8-methyl-1-isoquinolyl)-N-[(3R)-3-piperidyl]-2-(1H-pyrazol-5-yl)benzamide]: < 5.00; for `Cc1csc2ccnc(N(C(=O)c3ccc(-c4cn(C)nn4)cc3F)[C@@H]3CCCNC3)c12` [Example 841, (R)-2-fluoro-4-(1-methyl-1H-1,2,3-triazol-4-yl)-N-(3-methylthieno[3,2-c]pyridin-4-yl)-N-(piperidin-3-yl)benzamide]: 7.12; for `Cc1cccc2ccnc(N(C(=O)c3ccc(Nc4nccc(CN5CCN(C)CC5)n4)cc3F)[C@@H]3CCCNC3)c12` [Example 934, (R)-2-fluoro-N-(8-methylisoquinolin-1-yl)-4-((4-((4-methylpiperazin-1-yl)methyl)pyrimidin-2-yl)amino)-N-(piperidin-3-yl)benzamide]: 6.92.

For the compound `Cn1cc(-c2ccc(C(=O)N(c3nccc4sc(-c5ccc(C(N)=O)cc5)cc34)[C@@H]3CCCNC3)c(F)c2)nn1` [Example 840, N-[2-(4-carbamoylphenyl)thieno[3,2-c]pyridin-4-yl]-2-fluoro-4-(1-methyltriazol-4-yl)-N-[(3R)-3-piperidyl] benzamide], the pIC50 was 5.92. The value for `Nc1cc(-c2cc3c(N(C(=O)c4ccc(-n5nnc6cccnc65)cc4F)[C@@H]4CCCNC4)nccc3s2)ccn1` [Example 383, N-[2-(2-amino-4-pyridyl)thieno[3,2-c]pyridin-4-yl]-2-fluoro-N-[(3R)-3-piperidyl]-4-(triazolo[4,5-b]pyridin-3-yl)benzamide] was 6.70.
